The source of these data is US10370727B2, “Point mutations in TRK inhibitor-resistant cancer and methods relating to the same” (Loxo Oncology, Inc., priority 2015, dated 2019).

Structures are written as SMILES. Where a name gives a salt, the structure may show the parent alone. A value given as a limit tells only on which side of the number the result lay.

Assay [1] concerns TRKB and ERK1/2 activation in NIH3T3 cells expressing TRIM24-NTRK2 fusions. The assay is described as follows: Western blot analysis of NIH3T3 cells expressing TRIM24-NTRK2 fusions. The assay is classed as cell-based. The conditions noted are these: 2 hours. As to the method:
FIG. 11 is a photograph of a Western blot analysis of NIH3T3 cells treated with the indicated concentrations of (S)—N-(5-((R)-2-(2,5-difluorophenyl)pyrrolidin-1-yl)pyrazolo[1,5-a]pyrimidin-3-yl)-3-hydroxypyrrolidine-1-c[…] (Cmpd A) for 2 hours.
Ba/F3 cells stably expressing MPRIP-NTRK1 or TRIM24-NTRK2 were treated overnight with […] N-Ethyl-N-nitrosourea (ENU), pelleted, resuspended in fresh media, and distributed in 96-well plates in 200 μL media supplemented with (S)—N-(5-((R)-2-(2,5-DIFLUOROPHENYL)PYRROLIDIN-1-YL)PYRAZOLO[1,5-A]PYRIMIDIN-3-YL)-3-HYDROXYPYRROLIDINE-1-C[…] (100, 250, and 500 nM). […] The contents of outgrown wells were expanded in 12-well plates in media supplemented with (S)—N-(5-((R)-2-(2,5-DIFLUOROPHENYL)PYRROLIDIN-1-YL)PYRAZOLO[1,5-A]PYRIMIDIN-3-YL)-3-HYDROXYPYRROLIDINE-1-C[…] at the same concentration as in the initial 96-well plate. At confluence, cells were collected and genomic DNA was extracted. The NTRK1 and NTRK2 kinase region was PCR-amplified and sequenced. Plasmids encoding MPRIP-NTRK1 and TRIM24-NTRK2 mutations were generated with QuickChange site-directed mutagenesis and confirmed by DNA sequencing. Ba/F3 cells and NIH3T3 cells expressing MPRIP-NTRK1 mutants were generated by infecting Ba/F3 and NIH3T3 parental cells with lentivirus encoding MPRIP-NTRK1 mutation followed by selection with puromycin.
(A western blot detects proteins with antibodies after separation by electrophoresis.)

Assay [2] has as its system cells expressing a MPRIP-NTRK1 fusion protein including Trk inhibitor resistance mutations. The assay is described as follows: Proliferation (percent of control) of cells expressing mutant MPRIP-NTRK1 fusion. The assay is classed as cell-based. As to conditions: TrkA substitutions V573M, F589L, G667S.
Assay [3] has as its system cells expressing a TRIM24-NTRK2 fusion protein including TrkB inhibitor resistance mutations. Nature of the assay: Proliferation (percent of control) of cells expressing mutant TRIM24-NTRK2 fusion. The assay is classed as cell-based. As to conditions: Example 3; TrkB substitutions V601G, G623S, R630K. Here is the method:
N-ethyl-N-nitrosourea (ENU)-exposed Ba/F3-MPRIP-NTRK1 and Ba/F3-TRIM24-NTRK2 cells were used to generate mutations permitting growth of Ba/F3 cells in the absence of IL-3 despite the presence of 100, 250, or 500 nM (S)—N-(5-((R)-2-(2,5-difluorophenyl)pyrrolidin-1-yl)pyrazolo[1,5-a]pyrimidin-3-yl)-3-hydroxypyrrolidine-1-c[…]. The Mutations identified by genomic DNA sequencing in the initial screen were validated by cloning the mutation-bearing cDNAs back into Ba/F3 cells to evaluate their sensitivity to (S)—N-(5-((R)-2-(2,5-DIFLUOROPHENYL)PYRROLIDIN-1-YL)PYRAZOLO[1,5-A]PYRIMIDIN-3-YL)-3-HYDROXYPYRROLIDINE-1-C[…] using both proliferation assays and TRK phosphorylation by immunoblot analyses. Modeling of the mutations was performed by mapping of the amino acid substitutions onto a drug-bound TRK kinase domain crystal structure.
Ba/F3 cells stably expressing MPRIP-NTRK1 or TRIM24-NTRK2 were treated overnight with […] N-Ethyl-N-nitrosourea (ENU), pelleted, resuspended in fresh media, and distributed in 96-well plates in 200 μL media supplemented with (S)—N-(5-((R)-2-(2,5-DIFLUOROPHENYL)PYRROLIDIN-1-YL)PYRAZOLO[1,5-A]PYRIMIDIN-3-YL)-3-HYDROXYPYRROLIDINE-1-C[…] (100, 250, and 500 nM). […]

For assay [4], the system named is TRKA and ERK1/2 activation in NIH3T3 cells expressing MPRIP-NTRK1 fusions. The assay is described as follows: Western blot analysis of NIH3T3 cells expressing MPRIP-NTRK1 fusions. The assay is classed as cell-based. As to conditions: 2 hours.
The target in a further assay is TrkA V573M (Homo sapiens, UniProt P04629, V573M). The assay is described as follows: Trk enzyme assay ([33P] incorporation into poly-EAY). The assay is classed as biochemical. The conditions noted are these: mutant TrkA V573M enzyme; 22° C., 60 minutes.
TrkA V573M, sequence (P04629 33-796 V573M): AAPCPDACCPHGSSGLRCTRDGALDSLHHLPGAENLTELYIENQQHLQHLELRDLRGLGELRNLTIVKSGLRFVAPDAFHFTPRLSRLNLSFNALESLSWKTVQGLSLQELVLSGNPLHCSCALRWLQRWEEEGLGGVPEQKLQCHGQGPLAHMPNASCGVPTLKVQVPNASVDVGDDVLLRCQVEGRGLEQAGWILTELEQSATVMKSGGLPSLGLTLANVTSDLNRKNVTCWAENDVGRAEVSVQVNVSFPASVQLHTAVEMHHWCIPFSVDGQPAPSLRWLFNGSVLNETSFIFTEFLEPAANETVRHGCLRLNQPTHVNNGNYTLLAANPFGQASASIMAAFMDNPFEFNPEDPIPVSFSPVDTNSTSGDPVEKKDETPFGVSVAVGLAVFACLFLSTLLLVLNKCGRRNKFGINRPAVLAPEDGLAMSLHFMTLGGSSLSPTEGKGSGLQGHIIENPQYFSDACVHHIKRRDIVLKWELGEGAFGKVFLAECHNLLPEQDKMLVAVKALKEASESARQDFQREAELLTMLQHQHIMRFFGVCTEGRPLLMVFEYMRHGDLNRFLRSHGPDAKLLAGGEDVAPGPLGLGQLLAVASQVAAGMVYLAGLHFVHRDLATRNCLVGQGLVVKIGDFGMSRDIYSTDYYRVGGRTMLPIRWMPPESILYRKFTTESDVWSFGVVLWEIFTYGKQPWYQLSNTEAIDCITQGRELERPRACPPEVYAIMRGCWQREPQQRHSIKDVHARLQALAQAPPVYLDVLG
A further assay concerns the target TrkA G667C (Homo sapiens, UniProt P04629, G667C). The assay is described as above. The assay is classed as biochemical. As to conditions: mutant TrkA G667C enzyme; 22° C., 60 minutes.
The target of a further assay is TrkC WT (Homo sapiens, UniProt Q16288, S70N). The assay is described as above. The assay is classed as biochemical. As to conditions: wild-type TrkC enzyme; 22° C., 60 minutes.
TrkC WT, sequence (Q16288 32-839 S70N): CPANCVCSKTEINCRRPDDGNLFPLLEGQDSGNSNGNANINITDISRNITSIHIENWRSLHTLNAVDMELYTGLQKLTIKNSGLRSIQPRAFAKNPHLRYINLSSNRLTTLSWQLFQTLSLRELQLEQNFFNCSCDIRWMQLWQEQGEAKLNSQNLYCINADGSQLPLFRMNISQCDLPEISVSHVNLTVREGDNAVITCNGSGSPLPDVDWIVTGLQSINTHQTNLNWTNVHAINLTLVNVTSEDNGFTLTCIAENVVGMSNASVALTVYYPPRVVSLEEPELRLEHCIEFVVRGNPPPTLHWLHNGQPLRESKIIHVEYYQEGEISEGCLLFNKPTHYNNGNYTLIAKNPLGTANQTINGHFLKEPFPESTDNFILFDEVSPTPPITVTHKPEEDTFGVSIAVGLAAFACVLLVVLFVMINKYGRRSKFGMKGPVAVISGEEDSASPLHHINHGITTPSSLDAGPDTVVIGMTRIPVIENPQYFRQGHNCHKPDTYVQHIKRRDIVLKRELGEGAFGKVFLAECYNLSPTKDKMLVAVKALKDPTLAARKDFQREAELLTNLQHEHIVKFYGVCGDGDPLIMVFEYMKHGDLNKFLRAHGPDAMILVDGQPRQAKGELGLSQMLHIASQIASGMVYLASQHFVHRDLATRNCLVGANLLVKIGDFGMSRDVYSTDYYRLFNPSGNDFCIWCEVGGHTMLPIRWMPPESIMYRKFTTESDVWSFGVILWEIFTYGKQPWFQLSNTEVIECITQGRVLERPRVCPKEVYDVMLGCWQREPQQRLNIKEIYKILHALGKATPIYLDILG
A further assay deals with TrkB G623R (Homo sapiens, UniProt Q16620, G623R). The description is as above. The assay is classed as biochemical. The conditions noted are these: mutant TrkB G623R enzyme; 22° C., 60 minutes.
TrkB G623R, sequence (Q16620 32-822 G623R): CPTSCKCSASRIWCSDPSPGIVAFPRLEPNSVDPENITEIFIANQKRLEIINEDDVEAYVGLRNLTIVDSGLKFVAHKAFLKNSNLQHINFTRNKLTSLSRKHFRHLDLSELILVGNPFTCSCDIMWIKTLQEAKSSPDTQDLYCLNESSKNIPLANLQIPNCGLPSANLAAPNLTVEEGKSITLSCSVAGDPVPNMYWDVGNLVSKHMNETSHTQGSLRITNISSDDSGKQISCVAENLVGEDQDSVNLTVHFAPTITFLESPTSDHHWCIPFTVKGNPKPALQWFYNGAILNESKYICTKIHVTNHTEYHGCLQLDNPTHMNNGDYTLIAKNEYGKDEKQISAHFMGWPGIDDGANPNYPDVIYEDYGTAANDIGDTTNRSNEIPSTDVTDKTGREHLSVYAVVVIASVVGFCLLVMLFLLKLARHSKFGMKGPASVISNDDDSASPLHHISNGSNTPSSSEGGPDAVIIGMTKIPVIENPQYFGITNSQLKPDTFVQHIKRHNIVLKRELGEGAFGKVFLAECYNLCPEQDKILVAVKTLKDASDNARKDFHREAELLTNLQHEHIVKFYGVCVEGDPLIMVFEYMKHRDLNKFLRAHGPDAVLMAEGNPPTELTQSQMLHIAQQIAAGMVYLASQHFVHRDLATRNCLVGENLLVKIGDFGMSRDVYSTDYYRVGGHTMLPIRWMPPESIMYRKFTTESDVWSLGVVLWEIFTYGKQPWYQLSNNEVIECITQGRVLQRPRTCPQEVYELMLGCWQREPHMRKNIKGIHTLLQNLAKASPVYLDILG
The target of another assay is TrkA G595R (Homo sapiens, UniProt P04629, G595R). Described as above. The assay is classed as biochemical. As to conditions: mutant TrkA G595R enzyme; 22° C., 60 minutes.
TrkA G595R, sequence (P04629 33-796 G595R): as the sequence (P04629 33-796 V573M) above, with M541V, G563R counted along it
The target in another assay is TrkA WT (Homo sapiens, UniProt P04629). The description is as above. The assay is classed as biochemical. As to conditions: wild-type TrkA enzyme; 22° C., 60 minutes.
TrkA WT, sequence (P04629 33-796): as the sequence (P04629 33-796 V573M) above, with M541V counted along it
Another assay deals with TrkA F589L (Homo sapiens, UniProt P04629, F589L). The description is as above. The assay is classed as biochemical. The conditions noted are these: mutant TrkA F589L enzyme; 22° C., 60 minutes.
TrkA F589L, sequence (P04629 33-796 F589L): as the sequence (P04629 33-796 V573M) above, with M541V, F557L counted along it
For a further assay, the target named is TrkC F617L (Homo sapiens, UniProt Q16288, F617L/S70N). The description is as above. The assay is classed as biochemical. As to conditions: mutant TrkC F617L enzyme; 22° C., 60 minutes.
TrkC F617L, sequence (Q16288 32-839 S70N/F617L): as the sequence (Q16288 32-839 S70N) above, with F586L counted along it
For another assay, the target named is TrkB WT (Homo sapiens, UniProt Q16620). The description is as above. The assay is classed as biochemical. As to conditions: wild-type TrkB enzyme; 22° C., 60 minutes.
TrkB WT, sequence (Q16620 32-822): as the sequence (Q16620 32-822 G623R) above, with R592G counted along it
The next assay concerns the target TrkA G667S (Homo sapiens, UniProt P04629, G667S). The description is as above. The assay is classed as biochemical. The conditions noted are these: mutant TrkA G667S enzyme; 22° C., 60 minutes.
A further assay addresses TrkC G623R (Homo sapiens, UniProt Q16288, G623R/S70N). The assay is described as above. The assay is classed as biochemical. As to conditions: mutant TrkC G623R enzyme; 22° C., 60 minutes.

TrkA G667C, sequence (P04629 33-796 G667C): as the sequence (P04629 33-796 V573M) above, with M541V, G635C counted along it
TrkC G623R, sequence (Q16288 32-839 S70N/G623R): as the sequence (Q16288 32-839 S70N) above, with G592R counted along it
TrkA G667S, sequence (P04629 33-796 G667S): as the sequence (P04629 33-796 V573M) above, with M541V, G635S counted along it

For the molecule `O=C(Nc1cnn2ccc(N3CCC[C@@H]3c3cc(F)ccc3F)nc12)N1CC[C@H](O)C1` [(S)—N-(5-((R)-2-(2,5-difluorophenyl)pyrrolidin-1-yl)pyrazolo[1,5-a]pyrimidin-3-yl)-3-hydroxypyrrolidine-1-carboxamide sulfate], the “TRKB and ERK1/2 activation, sensitivity to inhibition (FIG. 11)” value is “resistant” in assay [1] (NIH3T3 cells expressing TRIM24-NTRK2 V601G, G623S or R630K fusions) and “sensitive” in assay [1] (NIH3T3 cells expressing TRIM24-NTRK2 WT fusion). In addition, the “resistance of cancer cells having a MPRIP-NTRK1 point mutation (POC, FIG. 4)” value in assay [2] (Example 1, F600L, Y676S) is “increased resistance”. Further, in [2] (Example 3), the “resistance of cancer cells having a MPRIP-NTRK1 point mutation (percent of control, FIG. 7)” value is recorded as “increased resistance”. Further, the “resistance of cancer cells having a TRIM24-NTRK2 point mutation (percent of control, FIG. 10)” value in assay [3] is recorded as “increased resistance”. In addition, the “TRKA and ERK1/2 activation, sensitivity to inhibition (FIG. 8)” value in assay [4] (NIH3T3 cells expressing MPRIP-NTRK1 V573M, F589L or G667S fusions) was “resistant”; in [4] (NIH3T3 cells expressing MPRIP-NTRK1 WT fusion) it was “sensitive”.
For `O=C(Nc1cnn2ccc(N3CCC[C@@H]3c3cc(F)ccc3F)nc12)N1CC(O)C1` [Compound 5, (R)-N-(5-(2-(2,5-difluorophenyl)pyrrolidin-1-yl)pyrazolo[1,5-a]pyrimidin-3-yl)-3-hydroxyazetidine-1-carboxamide], the IC50 against TrkA V573M is 152 nM; at TrkA G667C, 141 nM; on TrkC WT, less than 2.5 nM; against TrkB G623R it was 132 nM; against TrkA G595R, 84.6 nM; against TrkA WT it was 1.1 nM. In addition, the IC50 was 232 nM at TrkA F589L; 154 nM on TrkC F617L; 5.9 nM on TrkB WT; 38.5 nM against TrkA G667S; 95 nM against TrkC G623R.

The IC50 is the concentration that gives 50% inhibition. A low value points to greater potency.
